In US20150010928A1, “MEANS AND METHODS FOR ASSESSING AN ENDOCRINE DISEASE OR DISORDER” (priority 2012, published 2015):
Marks after values point to notes of the source that are not given here.

Tested on: female rats
Test: Plasma metabolite profiling (GC-MS, LC-MS, SPE-LC-MS) in female rats dosed once daily over 28 days (OECD 407)
Type: in vivo, rat
Conditions: for Cholesterol / Choline plasmalogen No 02 / Lignoceric acid (C24:0) / Sphingomyelin (d18:1, C16:0) / Sphingomyelin (d18:2, C16:0) / erythro-Sphingosine (d18:1): high dose, Table 14a; for 3-O-Methylsphingosine (d18:1), ratio versus control / 5-O-Methylsphingosine (d18:1), ratio versus control / 16-Methylheptadecanoic acid, ratio versus control / 17-Methyloctadecanoic acid, ratio versus control / Arachidonic acid (C20:cis[5,8,11,14]4), ratio versus control / Behenic acid (C22:0), ratio versus control / Cholesterol, ratio versus control / Choline plasmalogen No 03, ratio versus control / Docosahexaenoic acid (C22:cis[4,7,10,13,16,19]6), ratio versus control / Galactose, lipid fraction, ratio versus control / Lignoceric acid (C24:0), ratio versus control / Lysophosphatidylcholine (C17:0), ratio versus control / Malate, ratio versus control / Nervonic acid (C24:cis[15]1), ratio versus control / Sphingomyelin (d18:2, C16:0), ratio versus control / Stearic acid (C18:0), ratio versus control / Tricosanoic acid (C23:0), ratio versus control / Uric acid, ratio versus control / alpha-Tocopherol, ratio versus control / erythro-Sphingosine (d18:1), ratio versus control / myo-Inositol, lipid fraction, ratio versus control / myo-Inositol-2-phosphate, lipid fraction, ratio versus control / threo-Sphingosine (d18:1), ratio versus control: female rats, plasma, low dose
Procedure: Each dose group in the studies consisted of five rats per sex. Additional groups of each 5 male and female animals served as controls. […] All animals of the animal population were kept under the same constant temperature (20-24±3° C.) and the same constant humidity (30-70%). The animals of the animal population were fed ad libitum. The food to be used was essentially free of chemical or microbial contaminants. Drinking water was also offered ad libitum. Accordingly, the water was free of chemical and microbial contaminants as laid down in the European Drinking Water Directive 98/83/EG. The illumination period was 12 hours light followed by 12 hours darkness (12 hours light, from 6:00 to 18:00, and 12 hours darkness, from 18:00 to 6:00). […] The test substances (compounds) in the Tables 1 to 17 below were dosed and administered as described in the Table 18.
In the morning of day 7, 14, and 28, blood was taken from the retroorbital venous plexus from fasted anaesthetized animals. From each animal, 1 ml of blood was collected with EDTA as anticoagulant. The samples were centrifuged for generation of plasma. All plasma samples were covered with a N2 atmosphere and then stored at −80° C. until analysis.
For mass spectrometry-based metabolite profiling analyses plasma samples were extracted and a polar and a non-polar (lipid) fraction was obtained. For GC-MS analysis, the non-polar fraction was treated with methanol under acidic conditions to yield the fatty acid methyl esters. Both fractions were further derivatised with O-methyl-hydroxyamine hydrochloride and pyridine to convert Oxogroups to O-methyloximes and subsequently with a silylating agent before analysis. In LC-MS analysis, both fractions were reconstituted in appropriate solvent mixtures. HPLC was performed by gradient elution on reversed phase separation columns. Mass spectrometric detection which allows target and high sensitivity MRM (Multiple Reaction Monitoring) profiling in parallel to a full screen analysis was applied as described in WO2003073464.
Steroids and their metabolites were measured by online SPE-LC-MS (Solid phase extraction-LC-MS).
Following comprehensive analytical validation steps, the data for each analyte were normalized against data from pool samples. These samples were run in parallel through the whole process to account for process variability. The significance of treatment group values specific for sex, treatmentduration and metabolite was determined by comparing means of the treated groups to the means of the respective untreated control groups using WELCH-test and quantified with treatment ratios versus control and p-values.
The identification of the most important biomarkers per toxicity pattern was done by a ranking of the analytes in the tables below. Therefore the metabolic changes in reference treatments of a given pattern (shown in the table) were compared with changes of the same metabolite in other unrelated treatments. […] The maximum absolute value of the respective TVALUE was taken to indicate the most important metabolite for the pattern.

With `CCC(=O)Oc1ccc(/C(CC)=C(\CC)c2ccc(OC(=O)CC)cc2)cc1` [Diethylstilboestrol dipropionate] the Cholesterol (f7) was 0.48 *, the “Choline plasmalogen No 02” value (f7) was 0.7 * and the “Lignoceric acid (C24:0)” value (f7) was 0.49 *. The “Sphingomyelin (d18:1, C16:0)” value (f7) was 0.72 *, the “Sphingomyelin (d18:2, C16:0)” value (f7) was 0.67 * and the “erythro-Sphingosine (d18:1)” value (f7) was 0.38 *. The Cholesterol (f14) was 0.69 *, the “Choline plasmalogen No 02” value (f14) was 0.75 * and the “Lignoceric acid (C24:0)” value (f14) was 0.6 *. The “Sphingomyelin (d18:1, C16:0)” value (f14) was 0.59^, the “Sphingomyelin (d18:2, C16:0)” value (f14) was 0.71 * and the “erythro-Sphingosine (d18:1)” value (f14) was 0.67 *. The Cholesterol (f28) was 0.58 *, the “Choline plasmalogen No 02” value (f28) was 0.67 * and the “Lignoceric acid (C24:0)” value (f28) was 0.59 *. For the same molecule, the “Sphingomyelin (d18:1, C16:0)” value (f28) was 0.73 *, the “Sphingomyelin (d18:2, C16:0)” value (f28) was 0.58 * and the “erythro-Sphingosine (d18:1)” value (f28) was 0.46 *.
For `O=c1c(-c2ccc(O)cc2)coc2cc(O)cc(O)c12` [Genistein], the “3-O-Methylsphingosine (d18:1), ratio versus control” value (day 7) was 0.25 *, the “5-O-Methylsphingosine (d18:1), ratio versus control” value (day 7) was 0.27 * and the “16-Methylheptadecanoic acid, ratio versus control” value (day 7) was 0.64 *. For the same molecule, the “17-Methyloctadecanoic acid, ratio versus control” value (day 7) was 0.7 *, the “Arachidonic acid (C20:cis[5,8,11,14]4), ratio versus control” value (“Arachidonic acid … ratio versus control” below) (day 7) was 0.59 * and the “Behenic acid (C22:0), ratio versus control” value (day 7) was 0.45 *. The “Cholesterol, ratio versus control” value (day 7) was 0.55 *, the “Choline plasmalogen No 03, ratio versus control” value (day 7) was 0.74 * and the “Docosahexaenoic acid (C22:cis[4,7,10,13,16,19]6), ratio versus control” value (“Docosahexaenoic acid … ratio versus control” for short) (day 7) was 0.52 *. The “Galactose, lipid fraction, ratio versus control” value (day 7) was 0.51 *, the “Lignoceric acid (C24:0), ratio versus control” value (day 7) was 0.45 * and the “Lysophosphatidylcholine (C17:0), ratio versus control” value (day 7) was 0.8 *. For the same molecule, the “Malate, ratio versus control” value (day 7) was 0.98 *, the “Nervonic acid (C24:cis[15]1), ratio versus control” value (day 7) was 0.45 * and the “Sphingomyelin (d18:2, C16:0), ratio versus control” value (day 7) was 0.55 *. The “Stearic acid (C18:0), ratio versus control” value (day 7) was 0.63 *, the “Tricosanoic acid (C23:0), ratio versus control” value (day 7) was 0.32 * and the “Uric acid, ratio versus control” value (day 7) was 0.73 *. For the same molecule, the “alpha-Tocopherol, ratio versus control” value (day 7) was 0.5 *, the “erythro-Sphingosine (d18:1), ratio versus control” value (day 7) was 0.29 * and the “myo-Inositol, lipid fraction, ratio versus control” value (day 7) was 0.62 *. The “myo-Inositol-2-phosphate, lipid fraction, ratio versus control” value (day 7) was 0.48 *, the “threo-Sphingosine (d18:1), ratio versus control” value (day 7) was 0.33 * and the “3-O-Methylsphingosine (d18:1), ratio versus control” value (day 14) was 0.55 *. For the same molecule, the “5-O-Methylsphingosine (d18:1), ratio versus control” value (day 14) was 0.58 *, the “16-Methylheptadecanoic acid, ratio versus control” value (day 14) was 0.72 * and the “17-Methyloctadecanoic acid, ratio versus control” value (day 14) was 0.73 *. For the same molecule, the “Arachidonic acid … ratio versus control” value (day 14) was 0.66 *, the “Behenic acid (C22:0), ratio versus control” value (day 14) was 0.52 * and the “Cholesterol, ratio versus control” value (day 14) was 0.66 *. For the same molecule, the “Choline plasmalogen No 03, ratio versus control” value (day 14) was 0.8 *, the “Docosahexaenoic acid … ratio versus control” value (day 14) was 0.71 * and the “Galactose, lipid fraction, ratio versus control” value (day 14) was 0.66 *. The “Lignoceric acid (C24:0), ratio versus control” value (day 14) was 0.53 *, the “Lysophosphatidylcholine (C17:0), ratio versus control” value (day 14) was 0.9 * and the “Malate, ratio versus control” value (day 14) was 0.75 *. For the same molecule, the “Nervonic acid (C24:cis[15]1), ratio versus control” value (day 14) was 0.7 *, the “Sphingomyelin (d18:2, C16:0), ratio versus control” value (day 14) was 0.74 * and the “Stearic acid (C18:0), ratio versus control” value (day 14) was 0.83 *. For the same molecule, the “Tricosanoic acid (C23:0), ratio versus control” value (day 14) was 0.65 *, the “Uric acid, ratio versus control” value (day 14) was 0.72 * and the “alpha-Tocopherol, ratio versus control” value (day 14) was 0.65 *. The “erythro-Sphingosine (d18:1), ratio versus control” value (day 14) was 0.61 *, the “myo-Inositol, lipid fraction, ratio versus control” value (day 14) was 0.76 * and the “myo-Inositol-2-phosphate, lipid fraction, ratio versus control” value (day 14) was 0.66^. The “threo-Sphingosine (d18:1), ratio versus control” value (day 14) was 0.65 *, the “3-O-Methylsphingosine (d18:1), ratio versus control” value (day 28) was 0.44 * and the “5-O-Methylsphingosine (d18:1), ratio versus control” value (day 28) was 0.47 *. The “16-Methylheptadecanoic acid, ratio versus control” value (day 28) was 0.69 *, the “17-Methyloctadecanoic acid, ratio versus control” value (day 28) was 0.86 * and the “Arachidonic acid … ratio versus control” value (day 28) was 0.46 *. For the same molecule, the “Behenic acid (C22:0), ratio versus control” value (day 28) was 0.57 *, the “Cholesterol, ratio versus control” value (day 28) was 0.43 * and the “Choline plasmalogen No 03, ratio versus control” value (day 28) was 0.57 *. The “Docosahexaenoic acid … ratio versus control” value (day 28) was 0.43 *, the “Galactose, lipid fraction, ratio versus control” value (day 28) was 0.62 * and the “Lignoceric acid (C24:0), ratio versus control” value (day 28) was 0.44 *. The “Lysophosphatidylcholine (C17:0), ratio versus control” value (day 28) was 0.81 *, the “Malate, ratio versus control” value (day 28) was 0.66 * and the “Nervonic acid (C24:cis[15]1), ratio versus control” value (day 28) was 0.43 *. For the same molecule, the “Sphingomyelin (d18:2, C16:0), ratio versus control” value (day 28) was 0.62 *, the “Stearic acid (C18:0), ratio versus control” value (day 28) was 0.66 * and the “Tricosanoic acid (C23:0), ratio versus control” value (day 28) was 0.42 *. For the same molecule, the “Uric acid, ratio versus control” value (day 28) was 0.57 *, the “alpha-Tocopherol, ratio versus control” value (day 28) was 0.46 * and the “erythro-Sphingosine (d18:1), ratio versus control” value (day 28) was 0.51 *. For the same molecule, the “myo-Inositol, lipid fraction, ratio versus control” value (day 28) was 0.75 *, the “myo-Inositol-2-phosphate, lipid fraction, ratio versus control” value (day 28) was 0.54 * and the “threo-Sphingosine (d18:1), ratio versus control” value (day 28) was 0.57 *.
